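Five concentrations, 48 hours, 96-well plates. TGI denotes the concentration required for complete inhibition of growth.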
Experiments:
Assay in all cases: NCI anticancer screen, dose series, 48 h
[1] = system: ACHN renal
[2] = system: U251 CNS
[3] = system: TK-10 renal
[4] = system: UO-31 renal
[5] = system: OVCAR-8 ovarian
[6] = system: SW-620 colon
[7] = system: SF-268 CNS
[8] = system: SK-MEL-5 melanoma
[9] = system: CAKI-1 renal
[10] = system: COLO 205 colon
[11] = system: HL-60(TB) leukemia
[12] = system: K-562 leukemia
[13] = system: SN12C renal
[14] = system: HCC-2998 colon
[15] = system: SNB-19 CNS
[16] = system: EKVX NSCLC
[17] = system: RPMI-8226 leukemia
[18] = system: MOLT-4 leukemia
[19] = system: HCT-15 colon
[20] = system: NCI/ADR-RES ovarian
[21] = system: SNB-75 CNS
[22] = system: BT-549 breast
[23] = system: HCT-116 colon
[24] = system: NCI-H460 lung
[25] = system: OVCAR-3 ovarian
[26] = system: SF-295 CNS
[27] = system: SK-OV-3 ovarian
[28] = system: MALME-3M melanoma
[29] = system: UACC-257 melanoma
[30] = system: KM12 colon
[31] = system: M14 melanoma
[32] = system: OVCAR-4 ovarian
[33] = system: OVCAR-5 ovarian
[34] = system: SR leukemia
[35] = system: SK-MEL-28 melanoma
[36] = system: MDA-MB-435
[37] = system: NCI-H522 lung
[38] = system: SF-539 CNS
[39] = system: CCRF-CEM leukemia
[40] = system: HS 578T breast
[41] = system: MDA-MB-231 breast
[42] = system: IGROV1 ovarian
[43] = system: T-47D breast
[44] = system: 786-0 renal
[45] = system: HT29 colon
[46] = system: HOP-92 NSCLC
[47] = system: UACC-62 melanoma
[48] = system: DU-145 prostate
[49] = system: MDA-N
[50] = system: NCI-H23 lung
[51] = system: MCF7 breast
[52] = system: NCI-H226 lung
[53] = system: PC-3 prostate
[54] = system: HOP-62 NSCLC
[55] = system: RXF 393 renal
[56] = system: LOX IMVI melanoma
[57] = system: SK-MEL-2 melanoma
[58] = system: A498 renal
[59] = system: A549 NSCLC

Which results are given for COc1ccc(N2C(=O)/C(=C/c3ccc(N(CCC#N)CCC#N)cc3)N=C2c2ccccc2)c(OC)c1?
TGI [1]: > 100 µM; TGI [2]: > 100 µM; TGI [3]: > 100 µM; TGI [4]: > 100 µM; TGI [5]: > 100 µM; TGI [6]: > 100 µM; TGI [7]: > 100 µM; TGI [8]: > 100 µM; TGI [9]: > 100 µM; TGI [10]: > 100 µM; TGI [11]: > 100 µM; TGI [12]: 87 µM; TGI [13]: > 100 µM; TGI [14]: > 100 µM; TGI [15]: > 100 µM; TGI [16]: > 100 µM; TGI [17]: > 100 µM; TGI [18]: > 100 µM; TGI [19]: > 100 µM; TGI [20]: > 100 µM; TGI [21]: > 100 µM; TGI [22]: > 100 µM; TGI [23]: > 100 µM; TGI [24]: > 100 µM; TGI [25]: > 100 µM; TGI [26]: > 100 µM; TGI [27]: > 100 µM; TGI [28]: > 100 µM; TGI [29]: > 100 µM; TGI [30]: > 100 µM; TGI [31]: > 100 µM; TGI [32]: > 100 µM; TGI [33]: > 100 µM; TGI [34]: 60.3 µM; TGI [35]: > 100 µM; TGI [36]: > 100 µM; TGI [37]: 74.1 µM; TGI [38]: > 100 µM; TGI [39]: 74.9 µM; TGI [40]: > 100 µM; TGI [41]: > 100 µM; TGI [42]: > 100 µM; TGI [43]: 69.5 µM; TGI [44]: > 100 µM; TGI [45]: > 100 µM; TGI [46]: 68.9 µM; TGI [47]: > 100 µM; TGI [48]: > 100 µM; TGI [49]: > 100 µM; TGI [50]: > 100 µM; TGI [51]: > 100 µM; TGI [52]: > 100 µM

Which results are given for COc1cc(-c2[o+]c3cc(O)cc(OC4OC(CO)C(O)C(O)C4O)c3cc2OC2OC(CO)C(O)C(O)C2O)cc(OC)c1O (stereo not given)?
TGI [1]: > 100 µM; TGI [2]: > 100 µM; TGI [3]: > 100 µM; TGI [4]: > 100 µM; TGI [5]: > 100 µM; TGI [53]: > 100 µM; TGI [6]: > 100 µM; TGI [7]: > 100 µM; TGI [8]: > 100 µM; TGI [9]: > 100 µM; TGI [10]: > 100 µM; TGI [54]: > 100 µM; TGI [11]: > 100 µM; TGI [12]: > 100 µM; TGI [13]: > 100 µM; TGI [14]: > 100 µM; TGI [15]: > 100 µM; TGI [55]: > 100 µM; TGI [16]: > 100 µM; TGI [17]: > 100 µM; TGI [18]: > 100 µM; TGI [19]: > 100 µM; TGI [21]: > 100 µM; TGI [22]: > 100 µM; TGI [23]: > 100 µM; TGI [24]: > 100 µM; TGI [56]: > 100 µM; TGI [25]: > 100 µM; TGI [26]: > 100 µM; TGI [27]: > 100 µM; TGI [28]: > 100 µM; TGI [29]: > 100 µM; TGI [30]: > 100 µM; TGI [31]: > 100 µM; TGI [32]: > 100 µM; TGI [33]: > 100 µM; TGI [34]: > 100 µM; TGI [35]: > 100 µM; TGI [36]: > 100 µM; TGI [57]: > 100 µM; TGI [37]: > 100 µM; TGI [38]: > 100 µM; TGI [39]: > 100 µM; TGI [40]: > 100 µM; TGI [41]: > 100 µM; TGI [42]: > 100 µM; TGI [43]: > 100 µM; TGI [44]: > 100 µM; TGI [45]: > 100 µM; TGI [46]: > 100 µM; TGI [47]: > 100 µM; TGI [48]: > 100 µM; TGI [49]: > 100 µM; TGI [50]: > 100 µM; TGI [51]: > 100 µM; TGI [58]: > 100 µM; TGI [59]: > 100 µM; TGI [52]: > 100 µM

Source: PubChem BioAssay (NCI)
